Reference: patent US9126941B2, “Treatment of hyperproliferative disorders with diarylhydantoin compounds” (The Regents of the University of California, priority 2005, dated 2015)
Where two headings read alike, the source gives them in different places.

Legend:
[1] = target: T1, AR (Homo sapiens, UniProt P10275); test: cell-based; assay type: cell-based; settings: for IC50 (nM) Reporter / Inhibitory activity on AR in reporter system: LNCaP-AR; for IC50 (nM) Reporter: 100 pM R1881, two days, No = did not inhibit AR response reporter; for Inhibitory activity on AR in reporter system: hormone refractory
T1 sequence (P10275 whole entry, looked up): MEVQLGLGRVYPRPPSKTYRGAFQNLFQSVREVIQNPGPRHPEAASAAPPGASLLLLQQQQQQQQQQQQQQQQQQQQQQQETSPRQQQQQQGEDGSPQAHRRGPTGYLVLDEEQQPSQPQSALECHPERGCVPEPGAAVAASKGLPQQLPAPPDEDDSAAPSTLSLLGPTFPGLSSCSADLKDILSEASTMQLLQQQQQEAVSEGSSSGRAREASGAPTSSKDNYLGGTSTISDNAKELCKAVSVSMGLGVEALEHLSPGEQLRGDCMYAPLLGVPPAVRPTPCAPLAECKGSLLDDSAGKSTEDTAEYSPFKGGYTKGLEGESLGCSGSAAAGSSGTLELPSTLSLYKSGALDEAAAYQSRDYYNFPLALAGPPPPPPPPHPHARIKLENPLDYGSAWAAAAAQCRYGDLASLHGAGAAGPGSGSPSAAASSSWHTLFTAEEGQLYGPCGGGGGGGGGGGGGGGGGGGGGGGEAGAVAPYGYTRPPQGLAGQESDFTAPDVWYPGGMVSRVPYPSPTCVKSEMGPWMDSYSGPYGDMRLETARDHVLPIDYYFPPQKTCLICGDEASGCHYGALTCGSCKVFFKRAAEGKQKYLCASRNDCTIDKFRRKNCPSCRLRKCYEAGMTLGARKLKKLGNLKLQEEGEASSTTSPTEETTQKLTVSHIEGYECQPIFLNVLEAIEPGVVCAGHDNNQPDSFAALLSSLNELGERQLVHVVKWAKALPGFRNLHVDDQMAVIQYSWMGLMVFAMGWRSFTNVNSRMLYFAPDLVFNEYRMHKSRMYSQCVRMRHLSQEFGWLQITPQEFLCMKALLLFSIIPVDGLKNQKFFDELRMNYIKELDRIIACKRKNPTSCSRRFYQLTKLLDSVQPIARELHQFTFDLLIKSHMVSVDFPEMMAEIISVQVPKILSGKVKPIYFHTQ
Method: The compounds were subjected to tests using an artificial AR response reporter system in a hormone refractory prostate cancer cell line. […] After two days of incubation, reporter activities were assayed.

[2] = Ranking of compounds in tiers for utility in treating prostate cancer; settings: assay not specified
Source text: The placement of compounds into tiers was based on available data coupled with analytical judgment. Data considered included in vitro assays (AR response reporter system in LNCaP cell line, PSA level measurement, MTS mitochondrial assay) and in vivo experiments (tumor size measured directly or by emission induced by luciferase reporter gene, pharmacokinetic assays based on blood plasma levels). Not every compound was subjected to each assay. […] Judgment was applied in ranking compounds relative to each other for their utility in treating prostate cancer, in particular when ranking two compounds for which the same experiments were not performed. Characteristics considered in establishing the ranking include AR antagonism activity, lack of AR agonism in hormone refractory cells, prevention of tumor growth, tumor shrinkage, and pharmacokinetic behavior, with a longer residence time in blood being advantageous.

[3] = target: T1, AR; test: cell-based; assay type: cell-based; settings: for Agonistic activity, secreted PSA: AR over expressed LNCaP, absence of R1881; for fold induction at 0.1 µM / fold induction at 1 µM / fold induction at 10 µM: LNCaP; for fold induction at 0.1 µM: read-out: Fold induction of endogenous PSA, 0.1 μM; for fold induction at 1 µM: read-out: Fold induction of endogenous PSA, 1 μM; for fold induction at 10 µM: read-out: Fold induction of endogenous PSA, 10 μM
[4] = target: T1, AR; test: cell-based; assay type: cell-based
Method: It is well established that PSA levels are indicators of AR activities in prostate cancer. […] The LNCaP-AR cells are a line of lymph node carcinoma of prostate cells transduced with a plasmid that makes express androgen receptors. […] After four days incubation, secreted PSA levels were assayed using PSA ELISA kits (American Qualex, San Clemente, Calif.)

[5] = target: T1, AR; test: cell-based; settings: for Agonistic activity on AR, reporter: LN-AR, absence of R1881; for fold induction at 0.1 µM: read-out: Fold induction of AR response reporter, 0.1 μM; for fold induction at 1 µM: read-out: Fold induction of AR response reporter, 1 μM; for fold induction at 10 µM: read-out: Fold induction of AR response reporter, 10 μM
Source text: Table 2 lists the agonistic activities of different compounds.

Structure (SMILES) | IC50 [1] [nM] | Agonistic activity, secreted PSA [3] | fold induction at 0.1 µM [3] | fold induction at 1 µM [3] | fold induction at 10 µM [3] | IC50 (nM) PSA [4] | IC50 (nM) Reporter [1] | Agonistic activity on AR, reporter [5] | fold induction at 0.1 µM [5] | fold induction at 1 µM [5] | fold induction at 10 µM [5] | Inhibitory activity on AR in reporter system [1] | further results
N#Cc1ccc(N2C(=S)N(c3ccc(C#N)c(C(F)(F)F)c3)C(=O)C23CCCC3)cc1 [RD54, 4-[1-(4-cyanophenyl)-4-oxo-2-thioxo-1,3-diazaspiro[4.4]non-3-yl]-2-trifluoromethylbenzonitrile] | 469 |  |  |  |  |  |  |  |  |  |  |  | Indication of agonism [2]: could act as an agonist
CC1(C)C(=O)N(c2ccc(C#N)c(C(F)(F)F)c2)C(=S)N1CCCCO [RU 59063, 4-[3-(4-hydroxybutyl)-4,4-dimethyl-5-oxo-2-thioxoimidazolidin-1-yl]-2-trifluoromethylbenzonitrile, reference compound] |  | stimulated PSA expression | 6.88 | 11.5 | 21.5 | No | No(*) | strongly activated AR | 11 | 20.8 | 34.6 |  | 
Cc1ccc(N2C(=S)N(c3ccc(C#N)c(C(F)(F)F)c3)C(=NC(=S)Nc3ccc(C#N)c(C(F)(F)F)c3)C23CCC3)cc1 [RD93, 1-(4-Cyano-3-trifluoromethyl-phenyl)-3-[7-(4-cyano-3-trifluoromethyl-phenyl)-6-thioxo-5-p-tolyl-5,7-diaza-spiro[3.4]oct-8-ylidene]-thiourea] |  | no agonistic activities | 1.44 | 1.3 | 1.05 |  |  | no agonistic activity | 1.26 | 1.1 | 1.3 |  | 
CCNC(=S)N=C1N(c2ccc(C#N)c(C(F)(F)F)c2)C(=S)N(c2ccc(C)cc2)C1(C)C [RD91, 1-[3-(4-cyano-3-trifluoromethyl-phenyl)-5,5-dimethyl-2-thioxo-1-p-tolyl-imidazolidin-4-ylidene]-3-ethyl-thiourea] |  | no agonistic activities | 1.06 | 1.3 | 0.85 |  |  | no agonistic activity | 1.3 | 1.18 | 1.28 |  | 
CN1C(=S)N(c2ccc(C#N)c(C(F)(F)F)c2)C(=O)C12CCCC2 [RD75, 4-(1-methyl-4-oxo-2-thioxo-1,3-diazaspiro[4.4]non-3-yl)-2-trifluoromethylbenzonitrile, reference compound] |  | stimulated PSA expression | 8.13 | 18.2 | 17.5 | No | No | strongly activated AR | 17 | 16.6 | 33.8 | no inhibitory activities | 
Cc1ccc(N2C(=S)N(c3ccc(C#N)c(C(F)(F)F)c3)C(=NC(=S)Nc3ccccc3)C23CCC3)cc1 [RD92, 1-[7-(4-cyano-3-trifluoromethyl-phenyl)-6-thioxo-5-p-tolyl-5,7-diaza-spiro[3.4]oct-8-ylidine]-3-phenyl-thiourea] |  | no agonistic activities | 1.31 | 1.05 | 0.9 |  |  | no agonistic activity | 1.19 | 1.41 | 1.17 |  | 
CN1C(=O)N(c2ccc(C#N)c(C(F)(F)F)c2)C(=O)C12CCCC2 [RD76, 4-(1-methyl-2,4-dioxo-1,3-diaza-spiro[4.4]non-3-yl)-2-trifluoromethylbenzonitrile] |  |  |  |  |  | No | No | strongly activated AR | 12 | 19.8 | 39 | no inhibitory activities | 
Cc1ccc(N2C(=S)N(c3ccc(C#N)c(I)c3)C(=O)C2(C)C)cc1 [RD100] |  |  |  |  |  |  |  |  |  |  |  |  | Activity (words, overall) [2]: good activity
Cc1ccc(N2C(=S)N(c3ccc(C#N)c(C(F)(F)F)c3)C(=O)C2(C)CF)cc1 (stereo not shown) [RD68, 4-(4-fluoromethyl-4-methyl-5-oxo-2-thioxo-3-(4-methylphenyl)imidazolidin-1-yl)-2-trifluoromethylbenzonitrile] | 126 |  |  |  |  |  |  |  |  |  |  |  | IC50 [4]: 129 nM
CC1(C)C(=S)N(c2ccc(C#N)c(C(F)(F)F)c2)C(=S)N1c1ccc(O)cc1 [RD59, 4-[3-(4-hydroxyphenyl)-4,4-dimethyl-2,5-dithioxoazolidin-1-yl]-2-trifluoromethylbenzonitrile] | 278 |  |  |  |  |  |  |  |  |  |  |  | IC50 [4]: 287 nM
Cc1ccc(N2C(=S)N(c3ccc(C#N)c(Cl)c3)C(=O)C2(C)C)cc1 [RD72] |  |  |  |  |  |  |  |  |  |  |  |  | Activity (words, overall) [2]: very poor activity
N#Cc1ccc(N2C(=O)C3(CCCC3)NC2=S)cc1C(F)(F)F [RD77, 4-(4-oxo-2-thioxo-1,3-diazaspiro[4.4]non-3-yl)-2-trifluoromethylbenzonitrile] |  |  |  |  |  | No | No | strongly activated AR | 14.9 | 22.5 | 37.1 | no inhibitory activities | 
N#Cc1ccc(N2C(=O)C3(CCC3)N(c3ccc(CCC(N)=O)cc3)C2=S)cc1C(F)(F)F [RD133, 3-{4-[7-(4-cyano-3-trifluoromethylphenyl)-8-oxo-6-thioxo-5,7-diaza-spiro[3.4]oct-5-yl]-phenyl}-propionamide] | 224 |  |  |  |  |  |  |  |  |  |  |  | Rank order, most active to least active, relative PSA level (FIG. 4) ([4]; 500 nM): RD138>RD131>RD37>RD133>RD134>RD137>RD138>RD135>bicalutamide; Decrease in PSA level of LNCaP-AR cells, comparison (FIG. 4) ([4]; at concentrations of 1000 nM): greater decrease in PSA level of LNCaP-AR cells than RD135 and RD137
CN1C(=O)N(c2ccc(C#N)c(C(F)(F)F)c2)C(=O)C12CCC2 [RD74, 4-(5-methyl-6,8-dioxo-5,7-diazaspiro[3.4]oct-7-yl)-2-trifluoromethylbenzonitrile, reference compound] |  | stimulated PSA expression | 7.5 | 15.2 | 23.8 | No | No | strongly activated AR | 11.4 | 14.3 | 30.6 | no inhibitory activities | 
Cc1ccc(N2C(=S)N(c3ccc(C#N)c(C(F)(F)F)c3)C(=O)C2(CCl)CCl)cc1 [RD67, 4-(4,4-bischloromethyl-5-oxo-2-thioxo-3-(4-methylphenyl)imidazolidin-1-yl)-2-trifluoromethylbenzonitrile] | 521 |  |  |  |  |  |  |  |  |  |  |  | IC50 [4]: > 500 nM
CN1C(=S)N(c2ccc(C#N)c(C(F)(F)F)c2)C(=O)C12CCC2 [RD73, 4-(5-methyl-8-oxo-6-thioxo-5,7-diazaspiro[3.4]oct-7-yl)-2-trifluoromethylbenzonitrile, reference compound] |  | stimulated PSA expression | 6.25 | 17.9 | 25.6 | No | No | strongly activated AR | 14.9 | 19.4 | 35.2 | no inhibitory activities | 
